{
  "source": "patent US20240092773A1",
  "about": "“DIHYDRO-CYCLOPENTA-ISOQUINOLINE SULFONAMIDES DERIVATIVES” (UCB Biopharma SRL, priority 2019, published 2024)",
  "target": "IgE-Tb binding to soluble IgE receptor FcεR1α (Y131A mutation) (Homo sapiens, UniProt P01854, N146Q/N252Q)",
  "sequence (P01854 whole entry N146Q/N252Q, looked up)": "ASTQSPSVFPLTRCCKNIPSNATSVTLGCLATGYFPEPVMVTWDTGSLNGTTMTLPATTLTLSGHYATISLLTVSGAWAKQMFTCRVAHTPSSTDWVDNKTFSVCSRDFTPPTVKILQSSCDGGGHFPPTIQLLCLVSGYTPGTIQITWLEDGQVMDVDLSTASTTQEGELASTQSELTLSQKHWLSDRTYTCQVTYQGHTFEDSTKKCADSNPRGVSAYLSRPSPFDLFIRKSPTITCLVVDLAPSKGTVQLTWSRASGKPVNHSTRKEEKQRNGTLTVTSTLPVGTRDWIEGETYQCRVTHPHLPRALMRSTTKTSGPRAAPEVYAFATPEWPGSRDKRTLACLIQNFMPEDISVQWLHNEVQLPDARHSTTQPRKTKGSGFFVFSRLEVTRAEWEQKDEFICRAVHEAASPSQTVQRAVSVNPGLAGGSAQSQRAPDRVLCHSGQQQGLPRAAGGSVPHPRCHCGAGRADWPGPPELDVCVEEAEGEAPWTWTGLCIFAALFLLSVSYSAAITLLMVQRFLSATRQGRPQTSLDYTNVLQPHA",
  "assay": "In vitro FRET assay: inhibition of binding of IgE-Tb to receptor FcεR1α-Y131A-AF488",
  "conditions": "read-out: FRET IC50 range",
  "data": [
    {"smiles": "CNC(=O)[C@H]1CCCN1[C@@H]1CCc2c1cc(S(=O)(=O)NCC(C)(C)F)c1cc(C3CC3)ncc21", "note": "(relative stereo) [Example 58, (2R)-1-[(7R*)-3-cyclopropyl-5-[(2-fluoro-2-methylpropyl)sulfamoyl]-8,9-dihydro-7H-cyclopenta[h]isoquinolin-7-yl]-N-methylpyrrolidine-2-carboxamide]", "values": [
      {"measurement": "IC50", "value": "100 to 2000", "unit": "nM"}
    ]},
    {"smiles": "CC(C)(F)CNS(=O)(=O)c1cc2c(c3cnc(C4CC4)cc13)CC[C@H]2NC(=O)NCC1CC1", "note": "(single isomer, unassigned) [Example 8, 1-(cyclopropylmethyl)-3-[(7R*)-3-cyclopropyl-5-[(2-fluoro-2-methylpropyl)sulfamoyl]-8,9-dihydro-7H-cyclopenta[h]isoquinolin-7-yl]urea]", "values": [
      {"measurement": "IC50", "value": "100 to 2000", "unit": "nM"}
    ]},
    {"smiles": "CC(C)(F)CNS(=O)(=O)c1cc2c(c3cnc(C4CC4)cc13)CC[C@@H]2NC(=O)c1cccnc1", "note": "(single isomer, unassigned) [Example 9, N-[(7R*)-3-cyclopropyl-5-[(2-fluoro-2-methylpropyl)sulfamoyl]-8,9-dihydro-7H-cyclopenta[h]isoquinolin-7-yl]pyridine-3-carboxamide]", "values": [
      {"measurement": "IC50", "value": "100 to 2000", "unit": "nM"}
    ]},
    {"smiles": "CC(C)(F)CNS(=O)(=O)c1cc2c(c3cnc(C4CC4)cc13)CC[C@H]2n1ccnc1NCC1CC1", "note": "(single isomer, unassigned) [Example 12, (7R*)-3-cyclopropyl-7-[2-(cyclopropylmethylamino)imidazol-1-yl]-N-(2-fluoro-2-methylpropyl)-8,9-dihydro-7H-cyclopenta[h]isoquinoline-5-sulfonamide]", "values": [
      {"measurement": "IC50", "value": "100 to 2000", "unit": "nM"}
    ]},
    {"smiles": "CC(C)(F)CNS(=O)(=O)c1cc2c(c3cnc(C4CC4)cc13)CC[C@H]2Nc1nccn1CC1CC1", "note": "(single isomer, unassigned) [Example 13, (7R*)-3-cyclopropyl-7-[[1-(cyclopropylmethyl)imidazol-2-yl]amino]-N-(2-fluoro-2-methylpropyl)-8,9-dihydro-7H-cyclopenta[h]isoquinoline-5-sulfonamide]", "values": [
      {"measurement": "IC50", "value": "100 to 2000", "unit": "nM"}
    ]},
    {"smiles": "CC(C)(F)CNS(=O)(=O)c1cc2c(c3cnc(C4CC4)cc13)[C@H](NC(=O)c1c[nH]c3cc(F)ccc13)CC2", "note": "(single isomer, unassigned) [Example 16, 6-fluoro-N-[(9R*)-3-cyclopropyl-5-[(2-fluoro-2-methylpropyl)sulfamoyl]-8,9-dihydro-7H-cyclopenta[h]isoquinolin-9-yl]-1H-indole-3-carboxamide]", "values": [
      {"measurement": "IC50", "value": "100 to 2000", "unit": "nM"}
    ]},
    {"smiles": "Cc1cc(C(=O)N[C@@H]2CCc3cc(S(=O)(=O)NCC(C)C)c4cc(C5CC5)ncc4c32)n[nH]1", "note": "(single isomer, unassigned) [Example 20, 5-methyl-N-[(9R*)-3-cyclopropyl-5-(2-methylpropylsulfamoyl)-8,9-dihydro-7H-cyclopenta[h]isoquinolin-9-yl]-1H-pyrazole-3-carboxamide]", "values": [
      {"measurement": "IC50", "value": "100 to 2000", "unit": "nM"}
    ]},
    {"smiles": "CC(C)CNS(=O)(=O)c1cc2c(c3cnc(C4CC4)cc13)[C@H](NC(=O)c1cccnc1)CC2", "note": "(single isomer, unassigned) [Example 21, N-[(9R*)-3-cyclopropyl-5-(2-methylpropylsulfamoyl)-8,9-dihydro-7H-cyclopenta[h]isoquinolin-9-yl]pyridine-3-carboxamide]", "values": [
      {"measurement": "IC50", "value": "10 to 50", "unit": "nM"}
    ]},
    {"smiles": "Cc1cc(Nc2nncn2[C@H]2CCc3c2cc(S(=O)(=O)NCC(C)(C)F)c2cc(C4CC4)nnc32)n(C)n1", "note": "(single isomer, unassigned) [Example 25, (7R*)-3-cyclopropyl-7-[3-[(2,5-dimethylpyrazol-3-yl)amino]-1,2,4-triazol-4-yl]-N-(2-fluoro-2-methylpropyl)-8,9-dihydro-7H-cyclopenta[h]cinnoline-5-sulfonamide]", "values": [
      {"measurement": "IC50", "value": "50 to 100", "unit": "nM"}
    ]},
    {"smiles": "CC(C)(F)CNS(=O)(=O)c1cc2c(c3cnc(C4CC4)cc13)CC[C@H]2C(=O)Nc1cccnc1", "note": "(single isomer, unassigned) [Example 37, (7R*)-3-cyclopropyl-5-[(2-fluoro-2-methylpropyl)sulfamoyl]-N-pyridin-3-yl-8,9-dihydro-7H-cyclopenta[h]isoquinoline-7-carboxamide]", "values": [
      {"measurement": "IC50", "value": "100 to 2000", "unit": "nM"}
    ]},
    {"smiles": "CCNc1nncn1C1CCc2c1cc(S(=O)(=O)NCC(C)C)c1cc(C3CC3)ncc21", "note": "(single isomer, unassigned) [Example 52, (7R*)-3-cyclopropyl-7-[3-(ethylamino)-1,2,4-triazol-4-yl]-N-(2-methylpropyl)-8,9-dihydro-7H-cyclopenta[h]isoquinoline-5-sulfonamide]", "values": [
      {"measurement": "IC50", "value": "10 to 50", "unit": "nM"}
    ]},
    {"smiles": "CCNc1c(NC2CCc3c2cc(S(=O)(=O)NCC(C)C)c2cc(C4CC4)ncc32)c(=O)c1=O", "note": "(single isomer, unassigned) [Example 53, (7R*)-3-cyclopropyl-7-[[2-(ethylamino)-3,4-dioxocyclobuten-1-yl]amino]-N-(2-methylpropyl)-8,9-dihydro-7H-cyclopenta[h]isoquinoline-5-sulfonamide]", "values": [
      {"measurement": "IC50", "value": "10 to 50", "unit": "nM"}
    ]},
    {"smiles": "CC(C)(F)CNS(=O)(=O)c1cc2c(c3cnc(C4CC4)cc13)CC[C@@H]2NC(=O)C1CN(C(=O)OC(C)(C)C)C1", "note": "(single isomer, unassigned) [Example 56, tert-butyl 3-[[(7R*)-3-cyclopropyl-5-[(2-fluoro-2-methylpropyl)sulfamoyl]-8,9-dihydro-7H-cyclopenta[h]isoquinolin-7-yl]carbamoyl]azetidine-1-carboxylate]", "values": [
      {"measurement": "IC50", "value": "100 to 2000", "unit": "nM"}
    ]},
    {"smiles": "CCn1cnnc1NC1CCc2cc(S(=O)(=O)NCC(C)C)c3cc(C4CC4)ncc3c21", "note": "(single isomer, unassigned) [Example 73, (9R*)-3-cyclopropyl-9-[(4-ethyl-1,2,4-triazol-3-yl)amino]-N-(2-methylpropyl)-8,9-dihydro-7H-cyclopenta[h]isoquinoline-5-sulfonamide]", "values": [
      {"measurement": "IC50", "value": "10 to 50", "unit": "nM"}
    ]},
    {"smiles": "CCNc1c(N[C@@H]2CCc3cc(S(=O)(=O)NCC(C)C)c4cc(C5CC5)ncc4c32)c(=O)c1=O", "note": "(single isomer, unassigned) [Example 79, (9R*)-3-cyclopropyl-9-[[2-(ethylamino)-3,4-dioxocyclobuten-1-yl]amino]-N-(2-methylpropyl)-8,9-dihydro-7H-cyclopenta[h]isoquinoline-5-sulfonamide]", "values": [
      {"measurement": "IC50", "value": "10 to 50", "unit": "nM"}
    ]},
    {"smiles": "CC(C)CNS(=O)(=O)c1cc2c(c3cnc(C4CC4)cc13)[C@@H](Nc1nc3ccccc3[nH]1)CC2", "note": "(single isomer, unassigned) [Example 80, (9R*)-9-(1H-benzimidazol-2-ylamino)-3-cyclopropyl-N-(2-methylpropyl)-8,9-dihydro-7H-cyclopenta[h]isoquinoline-5-sulfonamide]", "values": [
      {"measurement": "IC50", "value": "10 to 50", "unit": "nM"}
    ]},
    {"smiles": "Cc1cc(Nc2nncn2[C@H]2CCc3c2cc(S(=O)(=O)NCC(C)(C)F)c2cc(C4CC4)ncc32)n(C)n1", "note": "(single isomer, unassigned) [Example 86, (7R*)-3-cyclopropyl-7-[3-[(2,5-dimethylpyrazol-3-yl)amino]-1,2,4-triazol-4-yl]-N-(2-fluoro-2-methylpropyl)-8,9-dihydro-7H-cyclopenta[h]isoquinoline-5-sulfonamide]", "values": [
      {"measurement": "IC50", "value": "50 to 100", "unit": "nM"}
    ]},
    {"smiles": "Cc1cc(Nc2nncn2[C@@H]2CCc3c2cc(S(=O)(=O)NCC(C)C)c2cc(C4CC4)ncc32)n(C)n1", "note": "(single isomer, unassigned) [Example 87, (7R*)-3-cyclopropyl-7-[3-[(2,5-dimethylpyrazol-3-yl)amino]-1,2,4-triazol-4-yl]-N-(2-methylpropyl)-8,9-dihydro-7H-cyclopenta[h]isoquinoline-5-sulfonamide]", "values": [
      {"measurement": "IC50", "value": "10 to 50", "unit": "nM"}
    ]},
    {"smiles": "Cc1cncc(Nc2nncn2[C@@H]2CCc3c2cc(S(=O)(=O)NCC(C)C)c2cc(C4CC4)ncc32)c1", "note": "(single isomer, unassigned) [Example 89, (7R*)-3-cyclopropyl-N-(2-methylpropyl)-7-[3-[(5-methylpyridin-3-yl)amino]-1,2,4-triazol-4-yl]-8,9-dihydro-7H-cyclopenta[h]isoquinoline-5-sulfonamide]", "values": [
      {"measurement": "IC50", "value": "1 to 10", "unit": "nM"}
    ]},
    {"smiles": "CCNC(=O)N[C@@H]1CCc2c1cc(S(=O)(=O)NCC(C)C)c1cc(C3CC3)ncc21", "note": "(stereo in doubt) [Example 85, 1-ethyl-3-[(7R*)-3-cyclopropyl-5-(2-methylpropylsulfamoyl-8,9-dihydro-7H-cyclopenta[h]isoquinolin-7-yl]urea]", "values": [
      {"measurement": "IC50", "value": "10 to 50", "unit": "nM"}
    ]},
    {"smiles": "COc1ccnc2c1ncn2C1CCc2c1cc(S(=O)(=O)NCC(C)(C)F)c1cc(C3CC3)ncc21", "note": "(centres unmarked) [Example 1, 3-cyclopropyl-N-(2-fluoro-2-methylpropyl)-7-(7-methoxyimidazo[4,5-b]pyridin-3-yl)-8,9-dihydro-7H-cyclopenta[h]isoquinoline-5-sulfonamide]", "values": [
      {"measurement": "IC50", "value": "100 to 2000", "unit": "nM"}
    ]},
    {"smiles": "CC(C)CNS(=O)(=O)c1cc2c(c3cnc(C4CC4)cc13)C(Nc1nncn1-c1cccc3c1nnn3C)CC2", "note": "(centres unmarked) [Example 2, 3-cyclopropyl-N-isobutyl-9-[[4-(1-methylbenzotriazol-4-yl)-1,2,4-triazol-3-yl]amino]-8,9-dihydro-7H-cyclopenta[h]isoquinoline-5-sulfonamide]", "values": [
      {"measurement": "IC50", "value": "50 to 100", "unit": "nM"}
    ]},
    {"smiles": "CC(C)CNS(=O)(=O)c1cc2c(c3cnc(C4CC4)cc13)C(Nc1nncn1-c1ccnn1C)CC2", "note": "(centres unmarked) [Example 3, 3-cyclopropyl-N-isobutyl-9-[[4-(2-methylpyrazol-3-yl)-1,2,4-triazol-3-yl]amino]-8,9-dihydro-7H-cyclopenta[h]isoquinoline-5-sulfonamide]", "values": [
      {"measurement": "IC50", "value": "100 to 2000", "unit": "nM"}
    ]},
    {"smiles": "CC(C)CNS(=O)(=O)c1cc2c(c3cnc(C4CC4)cc13)C(n1cnnc1Nc1ccnn1C)CC2", "note": "(centres unmarked) [Example 4, 3-cyclopropyl-N-isobutyl-9-[3-[(2-methylpyrazol-3-yl)amino]-1,2,4-triazol-4-yl]-8,9-dihydro-7H-cyclopenta[h]isoquinoline-5-sulfonamide]", "values": [
      {"measurement": "IC50", "value": "100 to 2000", "unit": "nM"}
    ]},
    {"smiles": "CC(C)CNS(=O)(=O)c1cc2c(c3cnc(C4CC4)cc13)C(Nc1nncn1-c1cncc(F)c1)CC2", "note": "(centres unmarked) [Example 5, 3-cyclopropyl-9-[[4-(5-fluoro-3-pyridyl)-1,2,4-triazol-3-yl]amino]-N-isobutyl-8,9-dihydro-7H-cyclopenta[h]isoquinoline-5-sulfonamide]", "values": [
      {"measurement": "IC50", "value": "100 to 2000", "unit": "nM"}
    ]},
    {"smiles": "CC(C)CNS(=O)(=O)c1cc2c(c3cnc(C4CC4)cc13)C(n1cnnc1Nc1cncc(F)c1)CC2", "note": "(centres unmarked) [Example 6, 3-cyclopropyl-9-[3-[(5-fluoro-3-pyridyl)amino]-1,2,4-triazol-4-yl]-N-isobutyl-8,9-dihydro-7H-cyclopenta[h]isoquinoline-5-sulfonamide]", "values": [
      {"measurement": "IC50", "value": "100 to 2000", "unit": "nM"}
    ]}
  ]
}
